Reference: patent US12459922B2 (Gilead Sciences, Inc., priority 2022, dated 2025)

Tested on: endogenous cellular STAT1 (phosphorylated at Tyr701) in NCI-H1373 cells
Test: Phospho-STAT1 (Tyr701) LANCE Ultra TR-FRET Detection Assay
Assay type: cell-based
Conditions: Homo sapiens, NCI-H1373, 48 h, phospho-STAT1 (Tyr701) induction, read-out: NH1373 pSTAT1 EC50

Structure (SMILES) | EC50 [nM]
C[C@@H](CCCn1ccc2cc(-c3ncc(C#N)c(N)n3)c(F)c(F)c2c1=O)Nc1cn[nH]c(=O)c1C(F)(F)F [Example 110, 4-amino-2-[7,8-difluoro-1-oxo-2-[(4S)-4-[[6-oxo-5-(trifluoromethyl)-1H-pyridazin-4-yl]amino]pentyl]-6-isoquinolyl]pyrimidine-5-carbonitrile] | 13.4
Cc1cnc(-c2cc3ccn(CCC[C@H](C)Nc4cn[nH]c(=O)c4C(F)(F)F)c(=O)c3c(F)c2F)nc1N [Example 77, (S)-6-(4-amino-5-methylpyrimidin-2-yl)-7,8-difluoro-2-(4-((6-oxo-5-(trifluoromethyl)-1,6-dihydropyridazin-4-yl)amino)pentyl)isoquinolin-1(2H)-one] | 13.5
O=c1[nH]ncc(N[C@H]2CC[C@@H](Cn3ccc4cc(-c5ncc(C(F)(F)F)cn5)c(F)cc4c3=O)C2)c1C(F)(F)F [Example 443, 7-fluoro-2-(((1R,3S)-3-((6-oxo-5-(trifluoromethyl)-1,6-dihydropyridazin-4-yl)amino)cyclopentyl)methyl)-6-(5-(trifluoromethyl)pyrimidin-2-yl)isoquinolin-1(2H)-one] | 273
C[C@@H](CCCn1cnc2cc(-c3ncc(C(F)(F)F)c(N4CCC4)n3)c(F)cc2c1=O)Nc1cn[nH]c(=O)c1C(F)(F)F [Example 189, (S)-7-(4-(azetidin-1-yl)-5-(trifluoromethyl)pyrimidin-2-yl)-6-fluoro-3-(4-((6-oxo-5-(trifluoromethyl)-1,6-dihydropyridazin-4-yl)amino)pentyl)quinazolin-4(3H)-one] | 14.7
C[C@@H](CCCn1ccc2cc(-c3ncc(OCCO)cn3)c(F)cc2c1=O)Nc1cn[nH]c(=O)c1C(F)(F)F [Example 129, (S)-7-fluoro-6-(5-(2-hydroxyethoxy)pyrimidin-2-yl)-2-(4-((6-oxo-5-(trifluoromethyl)-1,6-dihydropyridazin-4-yl)amino)pentyl)isoquinolin-1(2H)-one] | 77.8
O=c1[nH]ncc(N[C@@H](CO)CCCn2ccc3cc(-c4ncc(Cl)cn4)c(F)cc3c2=O)c1C(F)(F)F [Example 166, 6-(5-chloropyrimidin-2-yl)-7-fluoro-2-[(4R)-5-hydroxy-4-[[6-oxo-5-(trifluoromethyl)-1H-pyridazin-4-yl]amino]pentyl]isoquinolin-1-one] | 128
C[C@@H](CCCn1ccc2cc(-c3ncc(Cl)c(N)n3)c(F)c(F)c2c1=O)Nc1cn[nH]c(=O)c1C(F)(F)F [Example 341, (S)-6-(4-amino-5-chloropyrimidin-2-yl)-7,8-difluoro-2-(4-((6-oxo-5-(trifluoromethyl)-1,6-dihydropyridazin-4-yl)amino)pentyl)isoquinolin-1(2H)-one] | 1.95
Nc1nc(-c2cc3ncn(CCC[C@H](COC(F)F)Nc4cn[nH]c(=O)c4C(F)(F)F)c(=O)c3cc2F)ccc1C(F)(F)F [Example 390, (R)-7-(6-amino-5-(trifluoromethyl)pyridin-2-yl)-3-(5-(difluoromethoxy)-4-((6-oxo-5-(trifluoromethyl)-1,6-dihydropyridazin-4-yl)amino)pentyl)-6-fluoroquinazolin-4(3H)-one] | 11.7
Nc1nc(-c2cc3ccn(CCC[C@H](COC(F)F)Nc4cn[nH]c(=O)c4C(F)(F)F)c(=O)c3c(F)c2F)ncc1C(F)(F)F [Example 389, (R)-6-(4-amino-5-(trifluoromethyl)pyrimidin-2-yl)-2-(5-(difluoromethoxy)-4-((6-oxo-5-(trifluoromethyl)-1,6-dihydropyridazin-4-yl)amino)pentyl)-7,8-difluoroisoquinolin-1(2H)-one] | 5.14
Nc1nc(-c2cc3ccn(C[C@@H]4CCC[C@H](Nc5cn[nH]c(=O)c5C(F)(F)F)C4)c(=O)c3c(F)c2F)cnc1C(F)(F)F [Example 257, 6-(6-amino-5-(trifluoromethyl)pyrazin-2-yl)-7,8-difluoro-2-(((1R,3S)-3-((6-oxo-5-(trifluoromethyl)-1,6-dihydropyridazin-4-yl)amino)cyclohexyl)methyl)isoquinolin-1(2H)-one] | 25.1
Cc1ccc(-c2cc3ccn(CCC[C@H](COC(F)F)Nc4cn[nH]c(=O)c4C(F)(F)F)c(=O)c3cc2F)nc1N [Example 412, (R)-6-(6-amino-5-methylpyridin-2-yl)-2-(5-(difluoromethoxy)-4-((6-oxo-5-(trifluoromethyl)-1,6-dihydropyridazin-4-yl)amino)pentyl)-7-fluoroisoquinolin-1(2H)-one] | 17.4
O=c1[nH]ncc(N[C@H]2CCC[C@@H](Cn3cnc4cc(-c5ncc(Cl)cn5)c(F)cc4c3=O)C2)c1C(F)(F)F [Example 247, 7-(5-chloropyrimidin-2-yl)-6-fluoro-3-(((1R,3S)-3-((6-oxo-5-(trifluoromethyl)-1,6-dihydropyridazin-4-yl)amino)cyclohexyl)methyl)quinazolin-4(3H)-one] | 8.8
O=c1[nH]ncc(N[C@H]2CCC[C@@H](Cn3ccc4cc(-c5ncc(C(F)(F)F)cn5)c(F)cc4c3=O)C2)c1C(F)(F)F [Example 183, 7-fluoro-2-[[(1R,3S)-3-[[6-oxo-5-(trifluoromethyl)-1H-pyridazin-4-yl]amino]cyclohexyl]methyl]-6-[5-(trifluoromethyl)pyrimidin-2-yl]isoquinolin-1-one] | 6.39
O=c1[nH]ncc(N[C@H]2CCC[C@@H](Cn3ccc4nc(-c5ccc(C(F)(F)F)cn5)ccc4c3=O)C2)c1C(F)(F)F [Example 273, 6-(((1R,3S)-3-((6-oxo-5-(trifluoromethyl)-1,6-dihydropyridazin-4-yl)amino)cyclohexyl)methyl)-2-(5-(trifluoromethyl)pyridin-2-yl)-1,6-naphthyridin-5(6H)-one] | 10000
CC[C@@H](CCCn1ccc2cc(-c3ncc(OC)c(N)n3)c(F)c(F)c2c1=O)Nc1cn[nH]c(=O)c1C(F)(F)F [Example 350, (S)-6-(4-amino-5-methoxypyrimidin-2-yl)-7,8-difluoro-2-(4-((6-oxo-5-(trifluoromethyl)-1,6-dihydropyridazin-4-yl)amino)hexyl)isoquinolin-1(2H)-one] | 15.1
C[C@H](Nc1cn[nH]c(=O)c1C(F)(F)F)/C(F)=C/Cn1ccc2cc(-c3ncc(C(F)(F)F)cn3)c(F)c(F)c2c1=O [Example 132, (S,Z)-7,8-difluoro-2-(3-fluoro-4-((6-oxo-5-(trifluoromethyl)-1,6-dihydropyridazin-4-yl)amino)pent-2-en-1-yl)-6-(5-(trifluoromethyl)pyrimidin-2-yl)isoquinolin-1(2H)-one] | 3.47
Nc1cn(C[C@@H]2CCC[C@H](Nc3cn[nH]c(=O)c3C(F)(F)F)C2)c(=O)c2cc(F)c(-c3ncc(C(F)(F)F)cn3)cc12 [Example 486, 4-amino-7-fluoro-2-(((1R,3S)-3-((6-oxo-5-(trifluoromethyl)-1,6-dihydropyridazin-4-yl)amino)cyclohexyl)methyl)-6-(5-(trifluoromethyl)pyrimidin-2-yl)isoquinolin-1(2H)-one] | 95.8
Nc1nc(-c2cc3ncn(CCC[C@@H](Nc4cn[nH]c(=O)c4C(F)(F)F)C4CC4)c(=O)c3cc2F)ncc1C(F)(F)F [Example 469, 7-[4-amino-5-(trifluoromethyl)pyrimidin-2-yl]-3-[(4R)-4-cyclopropyl-4-[[6-oxo-5-(trifluoromethyl)-1H-pyridazin-4-yl]amino]butyl]-6-fluoro-quinazolin-4-one] | 14.5
Nc1nc(-c2cc3ncn(CCC[C@H](COC(F)F)Nc4cn[nH]c(=O)c4C(F)(F)F)c(=O)c3cc2F)ncc1Cl [Example 426, (R)-7-(4-amino-5-chloropyrimidin-2-yl)-3-(5-(difluoromethoxy)-4-((6-oxo-5-(trifluoromethyl)-1,6-dihydropyridazin-4-yl)amino)pentyl)-6-fluoroquinazolin-4(3H)-one] | 14.2
COc1ccc(-c2cc3ccn(CCC[C@H](C)Nc4cn[nH]c(=O)c4C(F)(F)F)c(=O)c3cc2F)nc1N [Example 195, (S)-6-(6-amino-5-methoxypyridin-2-yl)-7-fluoro-2-(4-((6-oxo-5-(trifluoromethyl)-1,6-dihydropyridazin-4-yl)amino)pentyl)isoquinolin-1(2H)-one] | 8.14
O=c1[nH]ncc(N[C@H](CCCn2ccc3nc(-c4ccc(C(F)F)cn4)ccc3c2=O)COC(F)F)c1C(F)(F)F [Example 408, (R)-6-(5-(difluoromethoxy)-4-((6-oxo-5-(trifluoromethyl)-1,6-dihydropyridazin-4-yl)amino)pentyl)-2-(5-(difluoromethyl)pyridin-2-yl)-1,6-naphthyridin-5(6H)-one] | 4.11
O=c1[nH]ncc(Nc2cccc(Cn3ccc4cc(-c5ncc(C(F)(F)F)cn5)c(F)cc4c3=O)c2)c1C(F)(F)F [Example 91, 7-fluoro-2-[[3-[[6-oxo-5-(trifluoromethyl)-1H-pyridazin-4-yl]amino]phenyl]methyl]-6-[5-(trifluoromethyl)pyrimidin-2-yl]isoquinolin-1-one] | 290
COc1cnc(-c2cc3ccn(C/C=C/[C@H](C)Nc4cn[nH]c(=O)c4C(F)(F)F)c(=O)c3cc2F)nc1N [Example 134, (S,E)-6-(4-amino-5-methoxypyrimidin-2-yl)-7-fluoro-2-(4-((6-oxo-5-(trifluoromethyl)-1,6-dihydropyridazin-4-yl)amino)pent-2-en-1-yl)isoquinolin-1(2H)-one] | 5.19
Cc1cnc(-c2cc3ncn(CCC[C@H](C)Nc4cn[nH]c(=O)c4C(F)(F)F)c(=O)c3cc2F)nc1 [Example 95, (S)-6-fluoro-7-(5-methylpyrimidin-2-yl)-3-(4-((6-oxo-5-(trifluoromethyl)-1,6-dihydropyridazin-4-yl)amino)pentyl)quinazolin-4(3H)-one] | 97.1
CCNc1nc(-c2cc3ncn(CCC[C@H](C)Nc4cn[nH]c(=O)c4C(F)(F)F)c(=O)c3cc2F)ncc1C(F)(F)F [Example 117, 7-[4-(ethylamino)-5-(trifluoromethyl)pyrimidin-2-yl]-6-fluoro-3-[(4S)-4-[[6-oxo-5-(trifluoromethyl)-1H-pyridazin-4-yl]amino]pentyl]quinazolin-4-one] | 5.21
